Columns and labels:
[1] = test system: male albino mice; experiment: Allyl alcohol-induced liver injury in mice (SGPT); assay type: in vivo; conditions: allyl alcohol alone, 50 mg/kg single intraperitoneal dose, 4 hours
Description: Influence of vitamin E phosphate/phosphatidylcholine liposomes (see example 1) on Allyl alcohol-induced liver injury was evaluated in male albino mice.

[2] = test system: Liver cells; experiment: Phosphatidylcholine formation in liver cells dysfunctional due to ethanol exposure; assay type: cell-based; conditions: cells exposed to ethanol
Description: Liver cells which had become dysfunctional due to exposure to ethanol were incubated 24 hours with vitamin E phosphate/phosphatidylcholine liposomes. The pmoles of phosphatidylcholine formed per minute/mg protein was then measured with the following results: […]

[3] = test system: cultured liver cells; experiment: Reversal of ethanol damage in cultured liver cells (phosphatidylcholine biosynthesis); assay type: cell-based; conditions: 96 h
Description: The use of vitamin E phosphate/phosphatidylcholine to effect reversal of damage from ethanol on liver cells was then studied. The cultured liver cells were incubated with 25 mM or 50 mM ethanol for 96 hours, at which time there is significant reduction in liver cell function (phosphatidylcholine biosynthesis). The effect of adding vitamin E phosphate/phosphatdylcholine after 72 hours was studied, and 24 hours later (96 hours after initial exposure to ethanol) values were obtained.

[4] = test system: isolated liver cells (1000×g cell fraction); assay type: cell-based; conditions: phosphatidylcholine 100 μM, vitamin E phosphate 50 μm; for LCLP % control + SEM: in presence of 1 mM iron
[5] = test system: Liver cells; experiment: Incorporation of labeled choline into phosphatidylcholine (PC biosynthesis) by liver cells with iron; assay type: cell-based
Excerpt: The study of effects on liver cells was also considered based on evaluation of effect on increase in the incorporation of labeled choline into phosphatidylcholine (phosphatidylcholine biosynthesis) by liver cells. Vitamin E phosphate/phosphatidylcholine produced greater beneficial effects than either vitamin E phosphate or phosphatidylcholine. [table]

[6] = Precipitation in the presence of divalent metal salts; assay type: physicochemical
Excerpt: Liposomes were made using salts of the vitamin E phosphate and phosphatidylcholine. These salts were protected by liposomes to avoid precipitation in the presence of 2^+ metal ions.

[7] = in presence of 1 mM iron, phosphatidylcholine 100 μM, vitamin E phosphate 50 μm

## C=CCO [Allyl alcohol]
[1]
  SGPT % of control ± SEM: 330 ± 15 % of control

## CCO [ETOH, ethanol]
[2]
  pmoles of phosphatidylcholine formed per minute/mg protein: 25 pmoles per minute/mg protein
[2]; then incubated 24 hours in water
  pmoles of phosphatidylcholine formed per minute/mg protein: 27 pmoles per minute/mg protein
[3]; 25 mM ethanol alone
  phosphatidylcholine biosynthesis % control ± SEM: 38 ± 2 % control
[3]; 50 mM ethanol alone
  phosphatidylcholine biosynthesis % control ± SEM: 22 ± 1 % control

## Cc1c(C)c2c(c(C)c1OP(=O)(O)O)CCC(C)(CCCC(C)CCCC(C)CCCC(C)C)O2 (stereo not shown) [VEP, vitamin E phosphate]
[4]
  LCLP % control + SEM: 167 ± 3 % control
  iron-dependent lipid peroxidation in isolated liver cells (result in words): significantly reduced
[5]; [7]
  PC biosynthesis % control + SEM: 145 ± 4 % control
[6]
  behaviour in the presence of divalent metal salts: precipitated

## [Fe] [iron]
[5]; 1 mM iron alone
  PC biosynthesis % control + SEM: 254 ± 9 % control

## phosphatidylcholine [PC]
[4]
  LCLP % control + SEM: 281 ± 4 % control
  iron-dependent lipid peroxidation in isolated liver cells (result in words): significantly reduced
[5]; [7]
  PC biosynthesis % control + SEM: 167 ± 4 % control
